The IC50 is the concentration at which inhibition is half-maximal. Read a low IC50 as inhibition by little substance. The inhibition is the change of the read-out against control, counted positive when it falls.

The values that follow come from patent US9758459B2, “Allosteric modulators of factor XIa as anticoagulant agents” (VIRGINIA COMMONWEALTH UNIVERSITY, priority 2012, dated 2017).

Common to all, as to type: biochemical
Test [1] addresses T1, factor Xa (Homo sapiens, UniProt P00742).
T1 construct: purchased Haematologic Technologies (Essex Junction, Vt.); host or cells: human plasma
The test is described as follows: Factor Xa chromogenic substrate hydrolysis assay. As for the experimental part:
(§1) Plasma FIX (500 nM) was incubated with human FXIa (3 nM) in 50 mM Hepes buffer, pH 7.4, containing 125 mM NaCl, 5 mM CaCl2, and 0.1 mg/mL bovine serum albumin at 24° C. […] The primary antibody was goat anti-human FIX polyclonal IgG (Enzyme Research Laboratories, South Bend, Tenn.), and the secondary antibody was horseradish peroxidase-conjugated anti-goat IgG. Detection was by chemiluminescence. […] The inhibition profile was determined over a range of inhibitor concentrations to determine the IC50 of the enzyme-inhibitor complex. The KM of the substrate for its enzyme was used to identify the concentration of the substrate to be used for inhibition studies. […] Active site concentrations for preparations of FXIa were determined by titrations with human antithrombin in an S-2366 cleavage assay. The reaction was monitored using a SpectraMax 340 microtiter plate reader (Molecular Devices Corp., Sunnyvale, Calif.) with a reaction volume of 100 μL and path length of 3 mm. Each assay was performed in triplicate. The concentration of S-2366 was measured using an absorption coefficient of 8,266 M-1cm-1 at λ342 nm, while the free p-nitroaniline concentration was calculated using an absorption coefficient of 9,933 M cm^−1 at λ405 nm. The data was fitted using the standard Michaelis-Menten equation to determine the KM and VMAX. Results
(§2) Inhibition of Proteases of the Coagulation and Digestive Systems by 16S. The inhibition potential of 500 μM SAM (16S, 15S, 13S) against coagulation enzymes including thrombin and factor Xa and digestive enzymes including trypsin and chymotrypsin was evaluated using chromogenic substrate hydrolysis assays reported in the literature.^2,3,6 These assays were performed using substrates appropriate for the enzyme being studied under conditions closest to the physiological condition (37° C. and pH 7.4), except for thrombin, which was performed at 25° C. and pH 7.4. The concentrations of enzymes and substrates in microplate wells, respectively, were: 6 nM and 50 μM for thrombin; 1.09 nM and 125 μM for factor Xa, 2.5 ng/ml and 80 μM for bovine trypsin; and 500 ng/ml and 240 μM for bovine chymotrypsin. The ratio of the proteolytic activity of an enzyme in the presence of the sulfated QAO to that in its absence was used to calculate percent inhibition (%).

For test [2], the target named is T2, thrombin (Homo sapiens, UniProt P00734).
T2 construct: purchased Haematologic Technologies (Essex Junction, Vt.); host or cells: human plasma
The test is described as follows: Thrombin chromogenic substrate hydrolysis assay. The protocol:
as §1, §2

The target in test [3] is T3, human FXIa (Homo sapiens, UniProt P03951).
T3 construct: purchased Haematologic Technologies (Essex Junction, Vt.); host or cells: human plasma
T3 sequence (P03951 19-387 limits assumed): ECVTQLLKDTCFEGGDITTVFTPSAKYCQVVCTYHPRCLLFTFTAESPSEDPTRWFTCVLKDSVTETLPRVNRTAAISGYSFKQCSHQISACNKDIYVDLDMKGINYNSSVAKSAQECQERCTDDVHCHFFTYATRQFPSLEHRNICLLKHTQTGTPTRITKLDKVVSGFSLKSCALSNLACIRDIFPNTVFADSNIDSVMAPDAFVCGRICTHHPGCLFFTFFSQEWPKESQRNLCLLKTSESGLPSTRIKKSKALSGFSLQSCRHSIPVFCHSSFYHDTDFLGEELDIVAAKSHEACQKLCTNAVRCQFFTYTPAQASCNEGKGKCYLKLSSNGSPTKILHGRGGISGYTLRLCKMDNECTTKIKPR
T3 sequence (P03951 388-625 limits assumed): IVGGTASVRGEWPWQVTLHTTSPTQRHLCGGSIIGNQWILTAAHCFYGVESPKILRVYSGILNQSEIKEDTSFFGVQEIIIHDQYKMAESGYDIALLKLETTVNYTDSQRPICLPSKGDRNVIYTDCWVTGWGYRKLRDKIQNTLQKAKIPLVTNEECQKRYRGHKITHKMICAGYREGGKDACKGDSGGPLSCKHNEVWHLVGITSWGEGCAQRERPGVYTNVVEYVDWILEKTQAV
The test can be described thus: Inhibition of FXIa activation of FIX, Western blotting. As for the experimental part:
as §1
(A western blot detects proteins with antibodies after separation by electrophoresis.)

In test [4] the target is T4, FXIa wild type (FXIa-WT) (Homo sapiens, UniProt P03951).
T4 construct: made in house; host or cells: HEK-293
T4 sequence (P03951 19-387 limits assumed): as the sequence (P03951 19-387 limits assumed) above
T4 sequence (P03951 388-625 limits assumed): as the sequence (P03951 388-625 limits assumed) above
The test is described as follows: Michaelis-Menten kinetics of S-2366 hydrolysis by full-length factor XIa. As for the experimental part:
as §1

Test [5] has as its target T5, FXIa catalytic domain (FXIa-CD) (Homo sapiens, UniProt P03951, C500S).
T5 construct: eliminating the bond allows the catalytic domain of FXIa (FXIa-CD) to separate from the heavy chain; made in house; host or cells: HEK-293
The test can be described thus: Michaelis-Menten kinetics of S-2366 hydrolysis by FXIa catalytic domain. As for the experimental part:
as §1

Test [6] relates to human plasma. The test can be described thus: Activated partial thromboplastin time (APTT) plasma clotting assay. The protocol: Plasma clotting assays, prothrombin and activated partial thromboplastin time (PT and APTT, respectively), are routinely used to assess the anticoagulation potential of new enzyme inhibitors in an in vitro setting. Whereas PT measures the effect of an inhibitor on the extrinsic pathway of coagulation, APTT measures the effect on the intrinsic pathway.
Prothrombin Time (PT) and Activated Partial Thromboplastin Time (APTT) were assessed as described in Example 1.

“And” between values parts separate entries of the source, which are not always exact repeats. Equal values may be shown once.

T5 sequence (P03951 388-625 C500S): as the sequence (P03951 388-625 limits assumed) above, with C113S counted along it
T1 sequence (P00742 235-488 limits assumed): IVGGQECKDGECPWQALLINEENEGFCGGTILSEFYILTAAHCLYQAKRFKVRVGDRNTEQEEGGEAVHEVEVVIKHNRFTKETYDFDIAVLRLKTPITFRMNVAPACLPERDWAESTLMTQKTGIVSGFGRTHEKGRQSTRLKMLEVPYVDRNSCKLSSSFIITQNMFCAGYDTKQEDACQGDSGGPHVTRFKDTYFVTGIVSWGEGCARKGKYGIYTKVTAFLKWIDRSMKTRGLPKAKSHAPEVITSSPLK
T1 sequence (P00742 41-179 partner limits assumed): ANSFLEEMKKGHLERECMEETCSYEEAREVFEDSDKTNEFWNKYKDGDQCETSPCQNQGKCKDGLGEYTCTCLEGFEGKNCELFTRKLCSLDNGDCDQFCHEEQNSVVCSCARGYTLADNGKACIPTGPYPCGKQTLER

As to `O=C(OC[C@H]1O[C@@H](OC(=O)c2cc(OS(=O)(=O)O)c(O)c(OS(=O)(=O)O)c2)[C@H](OC(=O)c2cc(OS(=O)(=O)O)c(O)c(OS(=O)(=O)O)c2)[C@@H](OC(=O)c2cc(OS(=O)(=O)O)c(O)c(OS(=O)(=O)O)c2)[C@@H]1OC(=O)c1cc(OS(=O)(=O)O)c(O)c(OS(=O)(=O)O)c1)c1cc(OS(=O)(=O)O)c(O)c(OS(=O)(=O)O)c1` [SPGG, Sulfated Pentagalloylglucoside], the results for the HS in test [1] and in test [2] were 0.8 ± 0.2 and 0.5 ± 0.1, respectively. The IC50 is 153 µM in test [1] and 700 µM in test [2]. The ΔY in test [1] is on record as 101.9 ± 3.5; in test [2] it was 83 ± 10. For the same molecule, in test [1] (FXIa vs factor Xa), the “selectivity over factor Xa” value is reported as 221 fold. The molecule also returned a selectivity over thrombin in test [2] (FXIa vs thrombin) of 1016 fold. In test [3] (3 μM SPGG, FIX 0.5 μM, after 120 min of incubation), the “formation of FIXαβ” value is “not detectable”. In test [3] (read-out: efficacy of inhibition of FIX activation by FXIa), the inhibition at 3 µM is roughly 100%. In addition, the VMAX was 93.7 ± 3.2 mAU/min in test [4] ([SPGG] 0.005 μg/mL); 74.6 ± 2.6 mAU/min in test [4] ([SPGG] 0.5 μg/mL); 32.3 ± 2.1 mAU/min in test [4] ([SPGG] 5.0 μg/mL); 17.2 mAU/min and 17.2 ± 1.2 mAU/min in test [4] ([SPGG] 50.0 μg/mL); 56.9 ± 1.5 mAU/min in test [4] ([SPGG] […]); 87.0 ± 2.2 mAU/min in test [5] ([SPGG] 0.005 μg/mL). Besides, the VMAX in test [5] ([SPGG] 0.5 μg/mL) was 53.9 ± 1.4 mAU/min; in test [5] ([SPGG] 5.0 μg/mL) it was 22.6 mAU/min and 22.6 ± 1.4 mAU/min. The “decrease in VMAX” value in test [5] (SPGG 0 to 5.0 μg/mL) is recorded as roughly 5 fold. Besides, in test [6] (at molar levels), the “fold less effective than enoxaparin” value was 36 fold. The “APTT doubling potency relative to enoxaparin (fold less)” value in test [6] (by weight (μg/mL)) came to 18 fold. Further, the “concentration for 2-fold increase in APTT” value in test [6] (human plasma) amounted to 96 µg/mL.
